pEC50, pIC50: −log10 of the molar value. Where “and” joins values, the source holds several entries; their conditions need not be identical. Equal entries are not always repeated. Where two headings read alike, the source gives them in different places.
What was measured:
K-Ras G12C = K-Ras G12C (Homo sapiens (Human), UniProt P01116+P62937, G12C); assay: Ras-Raf (BRAF RBD) disruption / FRET / MOA assay, KRAS G12C; format: biochemical; conditions: KRAS G12C; Ras-Raf disruption/FRET/MOA assay; read-out: IC50* KRAS G12C FRET data
K-Ras G12C, sequence (P01116-2 other isoform, or with tags, fused parts or gaps G12C): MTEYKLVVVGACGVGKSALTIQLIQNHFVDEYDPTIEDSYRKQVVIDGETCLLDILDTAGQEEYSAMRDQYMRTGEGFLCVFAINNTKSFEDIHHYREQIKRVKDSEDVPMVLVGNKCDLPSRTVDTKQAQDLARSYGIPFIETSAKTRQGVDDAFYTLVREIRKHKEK
K-Ras G12C, sequence (P62937 whole entry): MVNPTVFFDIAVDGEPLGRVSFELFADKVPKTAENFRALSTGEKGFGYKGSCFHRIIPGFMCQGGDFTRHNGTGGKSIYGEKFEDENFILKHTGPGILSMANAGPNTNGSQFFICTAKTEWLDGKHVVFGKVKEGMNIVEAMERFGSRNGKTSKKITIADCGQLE
Summary of the method: (§1)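 Compounds, top final concentration 30 μM in 10-point 3-fold series, incubated 3 hours at 25° C with nucleotide-loaded Ras, cyclophilin A and BRAF RBD.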

KRAS G12S = KRAS G12S (Homo sapiens (Human), UniProt P01116+P62937, G12S); assay: Ras-Raf (BRAF RBD) disruption / FRET / MOA assay, KRAS G12S; format: biochemical; conditions: Ras-Raf disruption/FRET/MOA assay; class symbols; read-out: KRAS G12S FRET data IC50
KRAS G12S, sequence (P01116-2 other isoform, or with tags, fused parts or gaps G12S): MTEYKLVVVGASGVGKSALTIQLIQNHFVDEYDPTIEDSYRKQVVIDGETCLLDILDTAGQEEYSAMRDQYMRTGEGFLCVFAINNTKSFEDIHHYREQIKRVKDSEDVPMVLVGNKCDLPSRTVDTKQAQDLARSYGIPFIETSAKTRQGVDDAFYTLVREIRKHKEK
KRAS G12S, sequence (P62937 whole entry): as the sequence (P62937 whole entry) above
Summary of the method: as §1

[1] = test system: NCI-H358 cells (K-Ras G12C); assay: Potency assay: pERK in NCI-H358 cells; format: cell-based, human; conditions: H358 KRAS G12C, read-out: pERK EC50
Summary of the method: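 Inhibition of cellular pERK after a 4 h treatment, detected by AlphaLISA or In-Cell Western. IC50 from a four-parameter concentration-response fit.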

NCI-H358 (K-Ras G12C) = assay: CellTiter-Glo cell viability assay, NCI-H358; format: cell-based, human; conditions: Homo sapiens, NCI-H358, 120 h, NCI-H358, 5-day treatment; class symbols; read-out: Additional H358 Cell Viability assay data (K-Ras G12C, IC50)
Summary of the method: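 Steps: compound dispensed into wells holding cells; incubation to day 5; ~30 min room-temperature equilibration; luminescence read; sample signal divided by mean DMSO signal, times 100; four-parameter logistic curve fit.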

NRAS G12C = NRAS G12C (Homo sapiens (Human), UniProt P01111+P62937, G12C); assay: Ras-Raf (BRAF RBD) disruption / FRET / MOA assay, NRAS G12C; format: biochemical; conditions: read-out: IC50* NRAS G12C FRET data
NRAS G12C, sequence (P01111 whole entry G12C): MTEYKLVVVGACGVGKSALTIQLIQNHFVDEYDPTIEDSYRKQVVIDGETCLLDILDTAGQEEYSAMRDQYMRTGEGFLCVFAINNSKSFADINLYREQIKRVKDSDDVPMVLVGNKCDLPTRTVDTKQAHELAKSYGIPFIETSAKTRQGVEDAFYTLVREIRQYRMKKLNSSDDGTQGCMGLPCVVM
NRAS G12C, sequence (P62937 whole entry): as the sequence (P62937 whole entry) above
Summary of the method: as §1

KRAS G12V = KRAS G12V (Homo sapiens (Human), UniProt P01116+P62937, G12V); assay: Ras-Raf (BRAF RBD) disruption / FRET / MOA assay, KRAS G12V; format: biochemical; conditions: read-out: IC50* KRAS G12V FRET data
KRAS G12V, sequence (P01116-2 other isoform, or with tags, fused parts or gaps G12V): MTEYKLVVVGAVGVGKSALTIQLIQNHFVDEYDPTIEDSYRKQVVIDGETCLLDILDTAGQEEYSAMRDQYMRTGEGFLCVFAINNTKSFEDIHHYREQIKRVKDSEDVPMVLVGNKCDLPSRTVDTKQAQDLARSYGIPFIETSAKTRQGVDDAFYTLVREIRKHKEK
KRAS G12V, sequence (P62937 whole entry): as the sequence (P62937 whole entry) above
Summary of the method: as §1

KRAS G13D = KRAS G13D (Homo sapiens (Human), UniProt P01116+P62937, G13D); assay: Ras-Raf (BRAF RBD) disruption / FRET / MOA assay, KRAS G13D; format: biochemical; conditions: read-out: IC50* KRAS G13D FRET data
KRAS G13D, sequence (P01116-2 other isoform, or with tags, fused parts or gaps G13D): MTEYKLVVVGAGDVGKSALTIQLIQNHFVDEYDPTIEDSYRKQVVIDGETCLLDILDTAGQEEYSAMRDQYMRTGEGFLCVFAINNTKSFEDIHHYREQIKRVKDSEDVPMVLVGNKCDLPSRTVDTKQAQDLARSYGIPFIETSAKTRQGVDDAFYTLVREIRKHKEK
KRAS G13D, sequence (P62937 whole entry): as the sequence (P62937 whole entry) above
Summary of the method: as §1

K-Ras G13C = K-Ras G13C (Homo sapiens (Human), UniProt P01116+P62937, G13C); assay: Ras-Raf (BRAF RBD) disruption / FRET / MOA assay, KRAS G13C; format: biochemical; conditions: KRAS G13C; Ras-Raf disruption/FRET/MOA assay; read-out: IC50* KRAS G13C FRET data
K-Ras G13C, sequence (P01116-2 other isoform, or with tags, fused parts or gaps G13C): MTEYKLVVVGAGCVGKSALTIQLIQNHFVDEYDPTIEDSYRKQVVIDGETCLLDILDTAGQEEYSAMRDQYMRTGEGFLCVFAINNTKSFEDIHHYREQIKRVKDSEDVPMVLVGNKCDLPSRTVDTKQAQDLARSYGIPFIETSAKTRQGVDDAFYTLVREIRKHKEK
K-Ras G13C, sequence (P62937 whole entry): as the sequence (P62937 whole entry) above
Summary of the method: as §1

KRAS G12D = KRAS G12D (Homo sapiens (Human), UniProt P01116+P62937, G12D); assay: Ras-Raf (BRAF RBD) disruption / FRET / MOA assay, KRAS G12D; format: biochemical; conditions: Ras-Raf disruption/FRET/MOA assay; class symbols; read-out: KRAS G12D FRET data IC50
KRAS G12D, sequence (P01116-2 other isoform, or with tags, fused parts or gaps G12D): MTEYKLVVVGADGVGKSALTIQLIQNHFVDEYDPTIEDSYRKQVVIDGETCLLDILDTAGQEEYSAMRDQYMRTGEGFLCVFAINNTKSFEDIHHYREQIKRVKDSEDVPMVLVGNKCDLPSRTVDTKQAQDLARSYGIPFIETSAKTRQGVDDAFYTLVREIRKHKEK
KRAS G12D, sequence (P62937 whole entry): as the sequence (P62937 whole entry) above
Summary of the method: as §1

KRAS WT = KRAS WT (Homo sapiens (Human), UniProt P01116+P62937); assay: Ras-Raf (BRAF RBD) disruption / FRET / MOA assay, KRAS WT; format: biochemical; conditions: read-out: IC50* KRAS WT FRET data
KRAS WT, sequence (P01116-2 other isoform, or with tags, fused parts or gaps): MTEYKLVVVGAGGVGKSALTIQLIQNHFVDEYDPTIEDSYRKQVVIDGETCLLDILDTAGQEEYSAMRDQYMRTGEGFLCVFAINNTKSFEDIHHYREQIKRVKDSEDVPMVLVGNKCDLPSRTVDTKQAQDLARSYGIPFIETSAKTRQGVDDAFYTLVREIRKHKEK
KRAS WT, sequence (P62937 whole entry): as the sequence (P62937 whole entry) above
Summary of the method: as §1

SMILES	pIC50 (K-Ras G12C)	pIC50 (KRAS G12S)	pEC50 ([1]; Homo sapiens, NCI-H358)	pIC50 (NCI-H358 (K-Ras G12C))	pIC50 (NRAS G12C)	pIC50 (KRAS G12V)	pIC50 (KRAS G13D)	pIC50 (K-Ras G13C)	pIC50 (KRAS G12D)	pIC50 (KRAS WT)	pEC50 [1]
CCn1c(-c2cccnc2[C@H](C)OC)c2c3cc(ccc31)-c1cc(O)cc(c1)C[C@H](NC(=O)[C@H](C(C)C)N(C)C(=O)[C@H]1CCN(C(=O)C#C[C@@H]3CCCN3C)C1)C(=O)N1CCC[C@H](N1)C(=O)OCC(C)(C)C2 (atropisomer, axis not shown) [Example A247]	> 8.00	6.00 to 7.00 and 5.00 to 6.00	> 5.30	7.00 to 8.00	> 8.00	6.00 to 7.00 and 5.00 to 6.00	6.00 to 7.00 and 5.00 to 6.00	7.00 to 8.00 and > 8.00	5.00 to 6.00 and 6.00 to 7.00	6.00 to 7.00 and 5.00 to 6.00	
CCn1c(-c2cccnc2[C@H](C)OC)c2c3cc(ccc31)-c1cc(O)cc(c1)C[C@H](NC(=O)[C@H](C(C)C)N(C)C(=O)c1ccc(NC(=O)/C=C/CN(C)C)nc1)C(=O)N1CCC[C@H](N1)C(=O)OCC(C)(C)C2 (atropisomer, axis not shown) [Example A249]	6.00 to 7.00	5.00 to 6.00	> 5.30	6.00 to 7.00	6.00 to 7.00	5.00 to 6.00	5.00 to 6.00	7.00 to 8.00	< 5.00	5.00 to 6.00	
C=CC(=O)Nc1ccc(C(=O)N(C)[C@H](C(=O)N[C@H]2Cc3cc(O)cc(c3)-c3ccc4c(c3)c(c(-c3cccnc3[C@H](C)OC)n4CC)CC(C)(C)COC(=O)[C@@H]3CCCN(N3)C2=O)C(C)C)cn1 (atropisomer, axis not shown) [Example A250]	7.00 to 8.00	6.00 to 7.00 and 5.00 to 6.00	> 5.30	7.00 to 8.00	7.00 to 8.00 and > 8.00	6.00 to 7.00 and < 5.00	6.00 to 7.00 and < 5.00	7.00 to 8.00 and > 8.00	5.00 to 6.00 and < 5.00	6.00 to 7.00 and 5.00 to 6.00	
CCn1c(-c2cccnc2[C@H](C)OC)c2c3cc(ccc31)-c1cc(O)cc(c1)C[C@H](NC(=O)[C@H](C(C)C)N(C)C(=O)c1ncc(NC(=O)/C=C/CN(C)C)s1)C(=O)N1CCC[C@H](N1)C(=O)OCC(C)(C)C2 (atropisomer, axis not shown) [Example A253]	7.00 to 8.00	5.00 to 6.00	> 5.30	6.00 to 7.00	6.00 to 7.00	6.00 to 7.00	6.00 to 7.00	> 8.00	5.00 to 6.00	6.00 to 7.00	
C=CC(=O)Nc1cnc(C(=O)N(C)[C@H](C(=O)N[C@H]2Cc3cc(O)cc(c3)-c3ccc4c(c3)c(c(-c3cccnc3[C@H](C)OC)n4CC)CC(C)(C)COC(=O)[C@@H]3CCCN(N3)C2=O)C(C)C)s1 (atropisomer, axis not shown) [Example A254]	6.00 to 7.00	5.00 to 6.00	> 5.30	6.00 to 7.00	6.00 to 7.00	5.00 to 6.00	5.00 to 6.00	7.00 to 8.00	5.00 to 6.00	6.00 to 7.00	
C=CC(=O)Nc1cnc(C(=O)N(C)[C@H](C(=O)N[C@H]2Cc3cc(O)cc(c3)-c3ccc4c(c3)c(c(-c3cccnc3[C@H](C)OC)n4CC)CC(C)(C)COC(=O)[C@@H]3CCCN(N3)C2=O)C(C)C)n1C (atropisomer, axis not shown) [Example A255]	> 8.00	7.00 to 8.00		> 8.00	> 8.00	6.00 to 7.00	6.00 to 7.00	> 8.00	6.00 to 7.00	6.00 to 7.00	> 5.30
C=CC(=O)N1CC(C(=O)N(C)[C@H](C(=O)N[C@H]2Cc3cc(O)cc(c3)-c3ccc4c(c3)c(c(-c3cccnc3[C@H](C)OC)n4CC)CC(C)(C)COC(=O)[C@@H]3CCCN(N3)C2=O)C(C)C)C1 (atropisomer, axis not shown) [Example A256]	> 8.00	7.00 to 8.00	> 5.30	> 8.00	7.00 to 8.00	6.00 to 7.00	6.00 to 7.00	7.00 to 8.00	6.00 to 7.00	7.00 to 8.00	
CCn1c(-c2cccnc2[C@H](C)OC)c2c3cc(ccc31)-c1cc(O)cc(c1)C[C@H](NC(=O)[C@H](C(C)C)N(C)C(=O)C1CN(C(=O)/C=C/CN(C)C)C1)C(=O)N1CCC[C@H](N1)C(=O)OCC(C)(C)C2 (atropisomer, axis not shown) [Example A257]	> 8.00	6.00 to 7.00	> 5.30	7.00 to 8.00	> 8.00	6.00 to 7.00	6.00 to 7.00	7.00 to 8.00	6.00 to 7.00	6.00 to 7.00	
C=CC(=O)Nc1csc(C(=O)N(C)[C@H](C(=O)N[C@H]2Cc3cc(O)cc(c3)-c3ccc4c(c3)c(c(-c3cccnc3[C@H](C)OC)n4CC)CC(C)(C)COC(=O)[C@@H]3CCCN(N3)C2=O)C(C)C)n1 (atropisomer, axis not shown) [Example A259]	6.00 to 7.00	5.00 to 6.00	> 5.30	6.00 to 7.00	6.00 to 7.00	5.00 to 6.00	5.00 to 6.00	7.00 to 8.00	< 5.00	6.00 to 7.00	
C=CC(=O)N1CCC(C(=O)N(C)[C@H](C(=O)N[C@H]2Cc3cc(O)cc(c3)-c3ccc4c(c3)c(c(-c3cccnc3[C@H](C)OC)n4CC)CC(C)(C)COC(=O)[C@@H]3CCCN(N3)C2=O)C(C)C)CC1 (atropisomer, axis not shown) [Example A260]	7.00 to 8.00	7.00 to 8.00	> 5.30	> 8.00	7.00 to 8.00	6.00 to 7.00	7.00 to 8.00	7.00 to 8.00	6.00 to 7.00	7.00 to 8.00	
CCn1c(-c2cccnc2[C@H](C)OC)c2c3cc(ccc31)-c1cc(O)cc(c1)C[C@H](NC(=O)[C@H](C(C)C)N(C)C(=O)N1CCN(C(=O)/C=C/CN(C)C)CC1)C(=O)N1CCC[C@H](N1)C(=O)OCC(C)(C)C2 (atropisomer, axis not shown) [Example A263]	7.00 to 8.00	6.00 to 7.00	> 5.30	6.00 to 7.00	7.00 to 8.00	6.00 to 7.00	7.00 to 8.00	7.00 to 8.00	6.00 to 7.00	7.00 to 8.00	
CCn1c(-c2cccnc2[C@H](C)OC)c2c3cc(ccc31)-c1cc(O)cc(c1)C[C@H](NC(=O)[C@H](C(C)C)N(C)C(=O)N1CCCN(C(=O)/C=C/CN(C)C)CC1)C(=O)N1CCC[C@H](N1)C(=O)OCC(C)(C)C2 (atropisomer, axis not shown) [Example A264]	7.00 to 8.00	7.00 to 8.00	> 5.30	7.00 to 8.00	7.00 to 8.00	7.00 to 8.00	7.00 to 8.00	7.00 to 8.00	7.00 to 8.00	7.00 to 8.00	
C=CC(=O)N1CCCN(C(=O)N(C)[C@H](C(=O)N[C@H]2Cc3cc(O)cc(c3)-c3ccc4c(c3)c(c(-c3cccnc3[C@H](C)OC)n4CC)CC(C)(C)COC(=O)[C@@H]3CCCN(N3)C2=O)C(C)C)CC1 (atropisomer, axis not shown) [Example A265]	7.00 to 8.00	7.00 to 8.00	> 5.30	7.00 to 8.00	7.00 to 8.00	7.00 to 8.00	7.00 to 8.00	7.00 to 8.00	7.00 to 8.00	7.00 to 8.00	
CCn1c(-c2cccnc2[C@H](C)OC)c2c3cc(ccc31)-c1cc(O)cc(c1)C[C@H](NC(=O)[C@H](C(C)C)N1CCC3(CCN(C(=O)/C=C/CN(C)C)CC3)C1=O)C(=O)N1CCC[C@H](N1)C(=O)OCC(C)(C)C2 (atropisomer, axis not shown) [Example A267]	7.00 to 8.00	6.00 to 7.00	> 5.30	7.00 to 8.00	7.00 to 8.00	6.00 to 7.00	7.00 to 8.00	7.00 to 8.00	5.00 to 6.00	6.00 to 7.00	
CCn1c(-c2cccnc2[C@H](C)OC)c2c3cc(ccc31)-c1cc(O)cc(c1)C[C@H](NC(=O)[C@H](C(C)C)N1CC[C@]3(CCN(C(=O)/C=C/CN(C)C)C3)C1=O)C(=O)N1CCC[C@H](N1)C(=O)OCC(C)(C)C2 (atropisomer, axis not shown) [Example A268]	> 8.00	7.00 to 8.00	> 5.30	7.00 to 8.00	> 8.00	7.00 to 8.00	7.00 to 8.00	7.00 to 8.00	7.00 to 8.00	7.00 to 8.00	

From patent US11566007B2, “Ras inhibitors” (Revolution Medicines, Inc., priority 2019, dated 2023)
